This note sets out measurements from PubChem BioAssay (NCI).

Each structure is given as a SMILES string.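 Assay format: 96-well plates, 48-hour exposure. Abbreviation: GI50, concentration required for 50% inhibition of growth. TGI is the concentration that stops growth completely.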

Test in all cases: inhibition of tumour cell growth, NCI panel, 48 h
Test [1] deals with UACC-257 melanoma.
Test [2] deals with HCT-15 colon.
Test [3] concerns EKVX NSCLC.
For test [4], the system named is SNB-75 CNS.
In test [5] the test system is U251 CNS.
The test system of test [6] is LOX IMVI melanoma.
For test [7], the system named is 786-0 renal.
The subject of test [8] is SF-539 CNS.
Test [9] has as its system K-562 leukemia.
Test [10] concerns SF-295 CNS.

On to `COC(=O)C(=O)C1CCCCC(C2=NC3NN=C(N)N3C2=O)C1=O` (centres undefined), for which the TGI in [1], in [2], in [3], in test [4], in test [5] and in test [6] was over 100 µM throughout. For the same molecule, the TGI in test [7], in [8], in test [9] and in test [10] was over 100 µM in each case.
Consider `Cc1sc(/N=C2/NC(=O)CS2)nc1-c1nc(/N=C2/NC(=O)CS2)sc1C`, for which the GI50 in test [1] is over 50 µM; in test [2], over 50 µM; in [3] it was 1.33 µM; in [4] it was over 50 µM; in [5] it was over 50 µM; in test [6], over 50 µM. Moreover, the GI50 in [7] is over 50 µM; in [8], over 50 µM; in test [9] it was 26.8 µM; in [10], over 50 µM. Besides, the TGI in [1], in test [2], in test [3], in test [4], in test [5] and in test [6] was over 50 µM each time. Also, the TGI in [7], in [8], in test [9] and in test [10] was over 50 µM in each case.
Consider `CP(C)C.[Ag][I]`, for which the TGI is over 100 µM in test [1]; over 100 µM in test [2]; over 100 µM in test [3]; 46.5 µM in [4]; over 100 µM in test [5]; over 100 µM in [6]. The TGI in test [7], in [8], in test [9] and in test [10] was over 100 µM throughout.
Regarding `Cc1nc(N)sc1C(=O)/C=C/c1ccc([N+](=O)[O-])cc1`, the TGI in test [1], in test [2], in [3], in test [4], in test [5] and in [6] was over 100 µM throughout. Also, the TGI in test [7], in test [8], in test [9] and in test [10] was over 100 µM in each case.
On to `COc1cc(C2C(C#N)=C(N)Oc3cc4c(cc32)OCO4)cc2c1OCO2` (centres undefined), for which the GI50 was 0.9 µM in test [1]; 0.446 µM in test [2]; 0.594 µM in test [3]; 0.178 µM in test [4]; 0.314 µM in [5]; 1 µM in [6]. Further, the GI50 in test [7] is 0.597 µM; in test [8], 0.279 µM; in test [9] it was 0.068 µM; in test [10], 0.209 µM. Moreover, the TGI in test [1] is over 100 µM; in test [2], over 100 µM; in test [3] it was over 100 µM; in test [4], over 100 µM; in [5], over 38 µM; in test [6], over 100 µM. Also, the TGI in test [7] is over 90.9 µM; in test [9] it was over 100 µM; in test [10], over 100 µM.
`CNCCOc1nc2c3cnccc3cc(-c3cc(OC)c(OC)c(OC)c3)c2c2ccncc12`: the GI50 was 0.13 µM in [1]; 0.0467 µM in test [2]; 0.0782 µM in test [3]; 0.0304 µM in test [4]; 0.0241 µM in [5]; 0.0131 µM in test [6]. Besides, the GI50 is 0.0194 µM in test [7], 0.0438 µM in [8], 0.0294 µM in test [9] and 0.0211 µM in [10]. Further, the TGI in [1] was 0.728 µM; in test [2], 2.19 µM; in test [3], 0.432 µM; in test [4], 0.162 µM; in [5] it was 0.523 µM; in [6], 0.0944 µM. The TGI was determined as 0.175 µM in [7], 0.225 µM in [8], 10.1 µM in test [9] and 0.101 µM in test [10].
For `C=C=[CH][Sn]([c]1ccccc1)([c]1ccccc1)[c]1ccccc1`, the GI50 in test [1] is 1.63 µM; in [2] it was 1.4 µM; in [3], 1.7 µM; in [4], 1.31 µM; in test [5], 1.66 µM; in test [6], 1.43 µM. In addition, the GI50 in test [7] is 1.51 µM; in [8], 2.08 µM; in test [9], 0.722 µM; in test [10] it was 1.96 µM. Further, the TGI in [1] was found to be 3.05 µM; in test [2], 2.9 µM; in test [3], 4.78 µM; in test [4] it was 4.72 µM; in [5], 3.16 µM; in test [6] it was 2.87 µM. The TGI in test [7] turned out to be 2.92 µM; in [8], 4.34 µM; in test [9], 3.3 µM; in test [10] it was 3.89 µM.
Regarding `Cc1c(N2C(=O)/C(=C\c3ccc(N(C)C)cc3)N=C2c2ccccc2)c(=O)n(-c2ccccc2)n1C`, the GI50 is over 100 µM in test [1]; over 100 µM in test [2]; 68.4 µM in test [3]; 60.2 µM in test [4]; over 92.4 µM in test [5]; over 94.4 µM in test [6]. For the same molecule, the GI50 is over 100 µM in [7], over 100 µM in test [8], 40.9 µM in test [9] and 92 µM in [10]. Further, the TGI in test [1], in test [2], in test [3], in test [4], in test [5] and in [6] was over 100 µM each time. The TGI in test [7], in [8], in [9] and in [10] was over 100 µM in each case.
`O=[N+]([O-])c1ccc(-c2ccccc2)c([As](=O)(O)O)c1`: the GI50 is 21.7 µM in [1]; 9.3 µM in [2]; 15.9 µM in test [3]; 15.1 µM in [4]; 3.08 µM in [5]; 8.15 µM in test [6]. In addition, the GI50 in test [7] is 17.7 µM; in test [8], 13 µM; in test [9], 4.89 µM; in [10] it was 22.3 µM. Moreover, the TGI in test [1] is over 100 µM; in [2] it was 41.2 µM; in test [3] it was over 100 µM; in [4] it was over 100 µM; in test [5], 23.9 µM; in test [6], 46.9 µM. The TGI was 36.4 µM in test [7], 44.6 µM in test [8], over 100 µM in test [9] and over 100 µM in test [10].
Take `C=C1CC(C/C=C(\C)CC2CC(=C)C(=O)O2)OC1=O` (centres undefined): the TGI in test [1], in test [2], in test [3], in test [4], in test [5] and in test [6] was over 100 µM each time. The TGI in test [7], in test [8], in [9] and in test [10] was over 100 µM throughout.
For `N#CC[C@H](C1CCCC1)n1cc(-c2ncnc3[nH]ccc23)cn1`, the GI50 is 44.2 µM in [1]; 26.6 µM in test [2]; 14.9 µM in test [3]; 3.3 µM in test [4]; 32.5 µM in [5]; 20.9 µM in test [6]. The GI50 is 12.9 µM in test [7], 16.7 µM in test [8], 22.2 µM in test [9] and 19.4 µM in [10]. In addition, the TGI in test [1] was over 100 µM; in test [2], over 100 µM; in [3], over 83.7 µM; in test [4], over 61.8 µM; in [5], over 100 µM; in test [6], over 100 µM. The TGI was over 91.3 µM in [7], 62.7 µM in test [8], over 100 µM in test [9] and 51.4 µM in [10].
On to `N#CC12Cc3ccc4c(c3-c3cccc(c31)CCN2C(=O)c1ccccc1)OCO4` (centres undefined), for which the TGI in test [1], in test [2], in test [3], in test [4], in test [5] and in test [6] was over 100 µM each time. The TGI in [7], in [8], in [9] and in [10] was over 100 µM throughout.
`CCOC(=O)C(Cc1ccc(OC)cc1)C(=O)OCC`: the GI50 in test [1] is 3.31 µM; in [2], 3.77 µM; in [3], 5.84 µM; in [4], 2.72 µM; in [5] it was 4.79 µM; in test [6], 3.56 µM. Further, the GI50 in [7] is 6.19 µM; in test [8] it was 2.92 µM; in test [9], 1.83 µM; in [10] it was 5 µM. Besides, the TGI in test [1] came out at 16.3 µM; in test [2], 19.4 µM; in [3], 23.7 µM; in [4], 9.35 µM; in test [5] it was 17.9 µM; in [6] it was 13.7 µM. Besides, the TGI in test [7] was determined as 18.7 µM; in test [8] it was 9.43 µM; in test [9], 11.8 µM; in test [10], 20.3 µM.
